Results as given in paper PMC7766155, “Improved Stability and Activity of a Marine Peptide-N6NH2 against Edwardsiella tarda and Its Preliminary Application in Fish” (Marine Drugs, 2020).
Where two headings read alike, the source gives them in different places. Where a SMILES comes first, the peptide text is derived from it. Bridges are numbered along the chain shown (N, C = ends).

Assays:
[1] = LPS binding, BODIPY-TR-cadaverine displacement; design: species or system E. coli; conditions: 0.5 µM LPS, 5 μM BC, Tris buffer pH 7.4; 0.049 μM to 50 μM; excitation/emission 580/620 nm
E. tarda genomic DNA = assay: Competitive binding of genomic DNA with ethidium bromide; design: species or system Edwardsiella tarda; conditions: peptide 160 μg/mL added to DNA (10 μg)-EB; 30 min at 37 °C
Procedure: E. tarda genomic DNA was dissolved in TE buffer to a concentration of 100 μg/mL; 1.5 μL of EB (100 μg/mL) solution was mixed with 100 μL of DNA solution and then added into 96-well plates. The DNA-EB mixture was incubated in the dark at 37 °C for 10 min. Varying concentrations of peptides (0, 40, 80, and 160 μg/mL, 100 μL) were then added to the DNA-EB solution (100 μL), and the fluorescence spectra were measured for each test solution after 30 min of incubation at 37 °C in the dark. Infinite M200 PRO was used for sample determination at 535 nm, and the spectra were recorded from 550 to 750 nm.
To determine the competitive binding of EB against peptides with bacterial DNA, 100 μL of DNA (50 μg/mL) solution was mixed with 100 μL of peptide solution (80 μg/mL) and incubated at 37 °C for 10 min. Then aliquots of stock solution of EB (0, 25, 50, and 100 μg/mL, 1.5 μL) were added to the fixed DNA-peptide solution and incubated for 30 min at 37 °C in the dark. The fluorescence spectra were measured as described above.

[2] = test system: inner membrane of E. tarda; assay: Inner membrane penetration, PI staining, flow cytometry; assay type: cell-based, Edwardsiella tarda
Procedure: After washing twice with PBS, the cells were incubated with PI (50 μg/mL) for 15 min and analyzed using a FACS Calibur Flow Cytometer (BD, San Jose, CA, USA).

Staphylococcus hyicus = assay: microbe, parasite or virus in culture; assay type: cell-based
Procedure: All tests were conducted in triplicate.

fish genome DNA = assay: Gel migration (DNA binding) assay; conditions: O. niloticus genomic DNA, Supplementary Figure S2
Procedure: The genomic DNA of E. tarda or O. niloticus was incubated for 10 min at room temperature with different concentrations of N6 and N6NH2 in binding buffer (5% glycerol, 10 mM Tris-HCl, pH 8.0, 20 mM KCl, 1 mM EDTA, 1 mM dithiothreitol and […] BSA). The mass ratios of peptides and DNA were 0, 0.5, 1, 2, 4, 6, 8, and 10, respectively. The migration of DNA was evaluated by electrophoresis on a 0.7% agarose gel.

[3] = broth microdilution, MHB, 1 × 10^5 CFU/mL, 37 °C 18–24 h, n = 3, some N6 data from ref 19

**Q.** With `CC(C)[C@@H]1NC(=O)CNC(=O)[C@H](CC(N)=O)NC(=O)[C@H](CCCNC(=N)N)NC(=O)[C@H](Cc2ccc(O)cc2)NC(=O)[C@H](C(C)C)NC(=O)[C@@H](NC(=O)[C@@H](NC(=O)[C@H](CC(N)=O)NC(=O)[C@H](Cc2c[nH]c3ccccc23)NC(=O)[C@H](C)NC(=O)[C@H](Cc2ccccc2)NC(=O)CN)C(C)C)CSSC[C@@H](C(=O)N[C@@H](Cc2c[nH]cn2)C(=O)N[C@@H](CCCNC(=N)N)C(=O)N[C@@H](CCCNC(=N)N)C(=O)N[C@@H](C)C(=O)N[C@@H](CC(N)=O)C(=O)O)NC(=O)[C@H](C(C)C)NC(=O)[C@H](CCCNC(=N)N)NC1=O` [Peptide N6] (H-GFAWNVCVYRNGVRVCHRRAN-OH; disulfide 7-16; N-terminus assumed) as the compound, how does the “binding to LPS (displacement of BC probe)” value [1] read?
**A.** Its value is “potent LPS-binding affinity”.

**Q.** What about the “competition with EB for binding to E. tarda genomic DNA (quenching of DNA-EB fluorescence)” value (E. tarda genomic DNA) of the same compound?
**A.** The value was “the binding affinity of N6 was stronger than that of N6NH2”.

**Q.** And the MIC (S. aureus ATCC546; ATCC546)?
**A.** The MIC was 1.62 µM.

**Q.** What about the MIC (S. aureus ATCC546; [3]) of the same compound?
**A.** The MIC was 4 µg/mL.

**Q.** What about the “percentage of E. tarda stained with PI” value ([2]; 4 × MIC, 120 min, 1 × 10^8 CFU/mL, PI 50 μg/mL, flow cytometry) of the same compound?
**A.** The value was 77.7%.

**Q.** What about the “percentage of E. tarda stained with PI” value ([2]; within 30 min, 1×, 2× and 4× MIC) of the same compound?
**A.** The value was “less than 5%”.

**Q.** What about the MIC (Staphylococcus hyicus) of the same compound?
**A.** The MIC was 16 to 64 µg/mL.

**Q.** And the MIC (S. pullorum CVCC1802; CVCC1802)?
**A.** Its MIC is 0.2 µM.

**Q.** What about the MIC (S. pullorum CVCC1802; [3]) of the same compound?
**A.** The MIC was 0.5 µg/mL.

**Q.** And the “mass ratio at which migration of fish genome DNA is prevented” value (fish genome DNA)?
**A.** The value was 2.
